Test results taken from paper PMC548150, “Reversal of a full-length mutant huntingtin neuronal cell phenotype by chemical inhibitors of polyglutamine-mediated aggregation” (BMC Neuroscience, 2005).
Where “and” joins values, the source holds several entries; their conditions need not be identical. Equal entries are not always repeated. Entries after “also recorded” stand apart in the source; their conditions may differ. Where two headings read alike, the source gives them in different places.

What was measured:
[1] = molecular target: T1, Q58-htn 1–171 amino terminal fragment (GST-Q58-Htn cleaved by thrombin) (Homo sapiens, UniProt P42858, INS38QQQQQQQQQQQQQQQQQQQQQQQQQQQQQQQQQQQQQ); test: in vitro aggregation of amino-terminal mutant huntingtin fragment (filter retardation dot blot); assay type: biochemical
T1 construct: the amino terminal fragment 1–171 of mutant huntingtin; GST (N, cleaved yes); made in house; host or cells: E. coli BL21 (pGEX-2TK vector)
T1 sequence (P42858 with tags, fused parts or gaps with the stated changes limits assumed): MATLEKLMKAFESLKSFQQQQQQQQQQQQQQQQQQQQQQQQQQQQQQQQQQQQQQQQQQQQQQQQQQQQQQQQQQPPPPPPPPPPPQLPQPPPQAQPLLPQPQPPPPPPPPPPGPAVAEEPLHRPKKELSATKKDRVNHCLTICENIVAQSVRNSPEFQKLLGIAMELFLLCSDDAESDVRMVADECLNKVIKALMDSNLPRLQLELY
Procedure: In our primary screen (Figure 1A), GST-Q58-Htn (20 μg/ml) was mixed with thrombin (0.5 unit/μg GST-Q58-Htn) and immediately dispensed into a 96-well PCR plate containing compounds diluted to a final concentration of 100 μM. Incubation was continued for 24 hours at room temperature to allow aggregate formation. The aggregation was stopped by 2% SDS/10 mM 2-mercaptoethanol followed by boiling for 5 minutes. The mixture was filtered through a cellulose acetate membrane by using a 96-well ELIFA dot blot apparatus. The aggregates retained on the membrane were detected and quantified by immunoblotting and subsequent image analysis. Congo Red, a known huntingtin aggregation inhibitor, was used as the positive control.
A recombinant pGEX-2TK expression vector with cDNA fragment encoding amino terminal 171 amino acids of human huntingtin with a polyglutamine tract of 58 was used to prepare the GST-Q58-htn fusion protein. The GST-Q58-htn was overexpressed in BL21 cells and purified by affinity chromatography over glutathione-sepharose 4B beads (Amersham Pharmacia Biotech). The purified proteins were stored at concentration of 2.0 mg/ml at -80°C.
For primary screening of the chemical library, 1 μl of 4.0 mM small compound stock, diluted from the original plates, was placed in wells of 96-well plates. The fusion protein, GST-Q58-Htn was mixed with thrombin (0.5 unit/1 μg protein) at a concentration of 20 μg/ml in a buffer of 50 mM Tris-HCl, pH 8.0, 100 mM NaCl, 2.5 mM CaCl2, 1.0 mM EDTA. The mixture was immediately distributed into the 96-well plates containing diluted compounds at 40 μl/well and mixed well. The final concentration of the small compounds was 100 μM. After 24 hours incubation at room temperature, the reaction was stopped by adding 10 μl of 10% SDS/50 mM 2-mercaptoethanol to each well followed by boiling in a PCR machine for 5 minutes. The mixture from each well was filtered through a cellulose acetate membrane ((0.2 μm, GE Osmonics labstore, Minnetonka MN) by using a 96-well ELIFA (Pierce Biotech). The aggregates retained on the membrane were detected by a specific anti-huntingtin antibody, HP1 (diluted 1:1000), followed by incubation with peroxidase conjugated anti-rabbit antibody (diluted 1:10,000, Sigma). Signals from SDS insoluble aggregates were scanned and quantified by using ImageMaster Totalab image analysis software (Amersham Pharmacia Biotech). In the secondary screening, all steps were the same except the final concentration of compound in each well was reduced to 10 μM and the GST-Q58-Htn/thrombin mixture was preincubated for 45-minutes at room temperature and clarified by centrifugation at 28,000 × g for 30 minutes before being added to the test wells. For IC50 determinations, the in vitro aggregation assay and signal quantification were performed as in the second screening but varying the final concentration of input drug. The data for each inhibitor were obtained from at least two independent experiments in which every sample was analyzed in triplicate with Prism 3.0 software (Graphpad Software, Inc., San Diego, CA).

[2] = system: ST111/111 striatal cells (Hdh^Q111/Q111, full-length mutant huntingtin); test: striatal cell line assay: huntingtin localization phenotype (AP229 immunostaining, confocal); assay type: cell-based, mouse; conditions: for Percentage of ST111/111 cells showing cytoplasmic/nuclear huntingtin localization comparable to wild-type ST7/7 cells: 30 min at 33°C, mean ± SD of 5–10 fields; for reversal of the mutant huntingtin localization phenotype (in words): 0.5–50 μM tested
Text: To test the hypothesis that compounds, which inhibit the aggregation-promoting property of amino-terminal mutant huntingtin will also rescue effects of full-length mutant huntingtin, we tested the top six inhibitors in a striatal cell-based assay. Mutant Hdh^Q111/Q111 and wild-type Hdh^Q7/Q7 striatal cell lines, […], which have been prepared by transformation with a tsSV40 vector, can be propagated in culture and used for cytological and biochemical comparisons. These cells express full-length mutant or wild-type huntingtin, respectively, with no evidence of truncated amino-terminal fragments, no formation of polyglutamine aggregates and no cell death-producing toxicity. However, like the striatal neurons of Hdh^Q111/Q111 knock-in mice, the ST111/111 cells show nuclear staining of huntingtin when tested with an amino-terminal huntingtin antibody that is sensitive to the conformation of the full-length protein (Figure 5A). By contrast, ST7/7 cells expressing wild type huntingtin show both nuclear and cytoplasmic immunostaining with the same huntingtin antibody (Figure 5A).
Conditionally immortalized wild-type Hdh^Q7/Q7 striatal neuronal progenitor cells (ST7/7) expressing endogenous normal huntingtin, and homozygous Hdh^Q111/Q111 striatal neuronal progenitor cells (ST111/111), expressing endogenous mutant huntingtin with 111-glutamines, have been described previously. The striatal cell lines were grown at 33°C in Dulbecco's modified Eagle's medium (DMEM) supplemented with 10 % fetal bovine serum (FBS), 1% nonessential aminoacids, 2 mM L-glutamine and 400 μg/ml G418 (Geneticin (GIBCO-BRL, Life Technologies, Gaithersburg, MD).
(§1) In the immunofluorescence and confocal analysis experiment, wild-type ST7/7 and homozygous mutant ST111/111 cells, grown to confluence on glass coverslips, were treated with 6 different drugs at four different concentrations (0.5, 5, 10 or 50 μM) for 30 min at 33°C. After the treatment the drugs were removed and the cells washed twice in PBS. The cells were then fixed by incubation in 4% formaldehyde for 15 min, permeabilized by 0.1% Triton X-100 for 5 min and incubated for 30 min with blocking solution (1% bovine albumin in PBS). Coverslips were then incubated in primary antibody (AP229 1:500 dilution) for 2 h at room temperature and washed three times in PBS before a further 1 h in blocking solution containing the secondary antibody (goat anti-rabbit Cy3, Jackson ImmunoResearch, West Grove, PA. USA). After three washes in PBS coverslips were mounted onto glass slides with Vectashield (Burlingame, CA. USA) and the images were analyzed with a laser confocal microscope (Bio-Rad, Hercules, CA. USA) using 20 × objective. Cell death was quantified by scoring the percentage of cells with apoptotic nuclear morphology, i.e. condensed or fragmented nuclei, under the confocal microscope. In each case five to ten randomly selected fields were counted, comprising at least 200 cells, and each experiment was repeated 3 times.

[3] = system: HEK 293T cells expressing androgen receptor with 112 glutamines; conditions: cited from earlier work
ST111/111 striatal cells = assay type: cell-based; conditions: for percentage of dead cells: mouse, 30 min
Procedure: as §1, with “After” for “In the immunofluorescence and confocal analysis experiment, wild-type ST7/7 and homozygous mutant ST111/111 cells, grown to confluence on glass coverslips, were treated with 6 different drugs at four different concentrations (0.5, 5, 10 or 50 μM) for 30 min at 33°C. After”

[4] = GST-Q58-Htn 20 μg/ml pre-incubated with thrombin, 24 h room temperature, average of at least two independent experiments, read-out: IC50 (half-maximal inhibition) of Q58-Htn aggregation

| Compound | IC50 [1, 4] | Percentage of ST111/111 cells showing cytoplasmic/nuclear huntingtin localization comparable to wild-type ST7/7 cells ([2]; 0.5 μM) [%] | Percentage of ST111/111 cells showing cytoplasmic/nuclear huntingtin localization comparable to wild-type ST7/7 cells ([2]; 5 μM) [%] | Percentage of ST111/111 cells showing cytoplasmic/nuclear huntingtin localization comparable to wild-type ST7/7 cells ([2]; 10 μM) | reversal of the mutant huntingtin localization phenotype (in words) [2] | effect on caspase 3 activation [3] | other results |
| --- | --- | --- | --- | --- | --- | --- | --- |
| O=C1c2c(O)cccc2Cc2cccc(O)c21 [Anthralin] | < 15 µM and 10.5 µM | 4.6 ± 7.6 | 6.6 ± 9.7 | 9.6 ± 12.1% | little effect; also recorded: not effective |  | Percentage of ST111/111 cells showing cytoplasmic/nuclear huntingtin localization comparable to wild-type ST7/7 cells ([2]; 50 μM): 11.8 ± 14.4% |
| Nc1c(/N=N/c2ccc(-c3ccc(/N=N/c4cc(S(=O)(=O)O)c5ccccc5c4N)cc3)cc2)cc(S(=O)(=O)O)c2ccccc12 [Congo Red] |  |  |  |  |  |  | inhibition of Q58-Htn aggregation ([1]; 10 μM, positive control): completely inhibit |
| CC(C)=CCC[C@]1(C)C=Cc2c(O)c3c(c(CC=C(C)C)c2O1)O[C@]12C(=C[C@@H]4C[C@H]1C(C)(C)O[C@@]2(C/C=C(/C)C(=O)O)C4=O)C3=O [Gambogic acid] | < 6 µM and < 15 µM and 0.87 µM | 1 ± 2.6 | 0 |  | not effective | blocked caspase 3 activation | residual aggregate formed ([1]; at the maximum concentration of the dose response (0.01 μM to 500 μM)): approximately 20%; toxicity in the HEK 293T assay [3]: showed toxicity |
| Cc1cc2c(C(C)C)c(O)c(O)c(C=O)c2c(O)c1-c1c(C)cc2c(C(C)C)c(O)c(O)c(C=O)c2c1O [Gossypol-acetic acid] |  | 0 | 4.5 ± 4.3 | 3.5 ± 3.5% | not effective |  | IC50 [1]: < 6 µM and < 15 µM and 0.65 µM; Percentage of ST111/111 cells showing cytoplasmic/nuclear huntingtin localization comparable to wild-type ST7/7 cells ([2]; 50 μM): 15.9 ± 11.1%; Percentage of ST111/111 cells showing cytoplasmic/nuclear huntingtin localization comparable to wild-type ST7/7 cells ([2]; 50 μM, listed as Gossypol acetic acid complex): 15%; reversal of the mutant huntingtin localization phenotype (in words) ([2]; listed as Gossypol acetic acid complex): less effective; cell toxicity (in words) (ST111/111 striatal cells; tested up to 50 μM): no toxicity |
| O=C1C=CC(=O)c2c(O)cccc21 [Juglone] | < 6 µM and < 15 µM and 2.67 µM | 10.4 ± 12.4 | 37.9 ± 19.9 | 68% and 68.8 ± 18.4% | reversed the mutant phenotype in a dose-dependent manner; also recorded: effective |  |  |
| C=C1c2c(Cl)ccc(O)c2C(=O)C2=C(O)[C@]3(O)C(=O)C(C(N)=O)=C(O)[C@@H](N(C)C)[C@@H]3[C@@H](O)[C@H]12 [Meclocycline sulfosalicylate] | 14.8 µM |  |  |  |  |  |  |
| N=C1C=CC(=C(c2ccc(N)cc2)c2ccc(N)cc2)C=C1 [Pararosaniline pamoate] | 14.9 µM |  |  |  |  |  |  |
| C[n+]1cc2c3c(ccc2c2ccc4cc5c(cc4c21)OCO5)OCO3 [Sanguinarine nitrate] | < 6 µM and < 15 µM and 5.7 µM | 0 | 3.7 ± 5.2 | 0% | little effect | blocked caspase 3 activation | reversal of the mutant huntingtin localization phenotype (in words) ([2]; listed as sanguinarine): not effective; percentage of dead cells (ST111/111 striatal cells; 0.5 μM): 4.3%; percentage of dead cells (ST111/111 striatal cells; 5 μM): 5.5%; percentage of dead cells (ST111/111 striatal cells; 10 μM): 22.5% |
| CO[C@H]1C[C@H](O[C@@H]2/C(C)=C/C[C@@H]3C[C@@H](C[C@]4(CC[C@H](C)[C@@H](C5CCCCC5)O4)O3)OC(=O)[C@@H]3C=C(C)/C(=N/O)[C@H]4OC/C(=C\C=C\[C@@H]2C)[C@]43O)O[C@@H](C)[C@@H]1O [Selamectin] |  |  |  |  |  |  | IC50 [1]: 12.4 µM |
| Tyrothricin | 14.7 µM |  |  |  |  | blocked caspase 3 activation | toxicity in the HEK 293T assay [3]: showed toxicity |
